Data reported in US4687762A, “Water soluble drug complex and method for production of same” (Green Cross Corporation, priority 1984, dated 1987).
In brackets after ≈: the same amount, converted by molar mass. Like-named read-outs stand apart in the source and are kept apart here.

How the values were obtained:
[1] = Solubility in distilled water for injection; format: physicochemical; details: for solubility: component drug, distilled water for injection, 20° C.
[2] = Oral route absorption in rats; design: species or system rat (male Wistar); details: rat, in vivo
From the text: The oral route absorption of the drug-phospholipid complex according to this invention administered was compared with that of the component drug similarly administered. […] Twenty-four hours after the administration, the degree of retention of the drug in each organ was estimated by determining the radio-activity level.

[3] = tested on: L-1210 mouse ascites tumor cells; assay: Antitumor effect, life prolongation in L-1210 inoculated mice (Test 1); format: in vivo; details: intravenous, 5 days, BDF1 mice
Description: (§1) The pharmacologic effect of the drug-phospholipid complex according to this invention administered by the intravenous route was compared with that of the component drug administered in the same manner using 10 aminals. Test (1): Antitumor Effect
Ten male BDF1 mice ([…]) were inoculated with 10^6 cells of L-1210 mouse ascites tumor cells. After 24 hours from the inoculation Sapdicomycin as a drug was administered to the animals for continuous 5 days, and the number of days in which the test animals were dead. The life prolongation ratio was calculated according to the following equation. [formula] wherein A1 represents an average survival period (day) of control group (without administration) and A2 represents that of administered group.

[4] = design: species or system rat (male Wistar); details: rat, in vivo, iv, 1440 min
From the text: The organ affinity of the drug-phospholipid complex according to this invention was compared with that of the component drug. […] Twenty-four hours after the administration, the degree of retention of the drug in each organ was estimated by determining the radio-activity level.

[5] = Acute toxicity (LD50) in mice; details: mouse, in vivo, drug
From the text: The intravenous and oral acute toxicity values (LD50) in mice of each drug-phospholipid complex of this invention were compared with those of the corresponding component drug.

[6] = Blood pressure lowering effect in dogs (Test 2); format: in vivo, dog (male mongrel dogs); details: intravenous
Description: as §1
Test (2): Blood Pressure Lowering Effect
Ten normal male mongrel dogs were intravenously administered with prostaglandin E1 and the blood pressure of each animal was measured using a catheter inserted into the carotid artery of the animal.
The blood pressure lowing ratio was calculated according to the following equation. [formula] wherein P1 represents the blood pressure after the administration and P2 represents that before the administration.

[7] = intravenous, read-out: Acute Toxicity (LD50), Intravenous Administration, Drug
[8] = oral, read-out: Acute Toxicity (LD50), Oral Administration, Drug

spadicomycin
Solubility, Component Drug ([1]; water): 55000 µg/mL | Absorption Rate, Drug [2]: 2.0% | Antitumor effect (life prolongation ratio), Drug ([3]; 2.5 mg/kg): 19% | Antitumor effect (life prolongation ratio), Drug ([3]; 5.0 mg/kg): 25% | Antitumor effect (life prolongation ratio), Drug ([3]; 10.0 mg/kg): 50% | Retention in kidney, Drug [4]: 129 dpm per Gram Organ Weight | Retention in liver, Drug [4]: 585 dpm per Gram Organ Weight | Retention in tumor, Drug [4]: 3800 dpm per Gram Organ Weight | Retention in whole blood, Drug [4]: 825 dpm per Gram Organ Weight

COc1ccc2c(c1)c(CC(=O)OCC(=O)O)c(C)n2C(=O)c1ccc(Cl)cc1 [Acemetacin, acemetacin]
solubility [1]: 400 µg/mL (≈ 962 µM)

COc1cccc2c1C(=O)c1c(O)c3c(c(O)c1C2=O)C[C@@](O)(C(C)=O)C[C@@H]3O[C@H]1C[C@H](N)[C@H](O)[C@H](C)O1 [Daunomycin, daunomycin]
solubility [1]: 20000 µg/mL (≈ 37900 µM) | LD50 [5, 7]: 23.5 mg/kg | LD50 [5, 8]: 271 mg/kg

COc1cccc2c1C(=O)c1c(O)c3c(c(O)c1C2=O)C[C@@](O)(C(=O)CO)C[C@@H]3O[C@H]1C[C@H](N)[C@H](O)[C@H](C)O1 [Adriamycin, adriamycin]
solubility [1]: 7000 µg/mL (≈ 12900 µM) | LD50 [5, 7]: 9.1 mg/kg | LD50 [5, 8]: 737 mg/kg

CC(C(=O)O)c1ccc(-c2ccccc2)c(F)c1 (centres unmarked) [Flurbiprofen, flurbiprofen]
solubility [1]: 150 µg/mL (≈ 614 µM)

C[C@@H]1C[C@H]2[C@@H]3CCC4=CC(=O)C=C[C@]4(C)[C@@]3(F)[C@@H](O)C[C@]2(C)[C@@]1(O)C(=O)CO [Dexamethasone, dexamethasone]
solubility [1]: 50 µg/mL (≈ 127 µM)

O=c1[nH]cc(F)c(=O)[nH]1 [5-Fluorouracil]
solubility [1]: 13000 µg/mL (≈ 99900 µM) | LD50 [5, 7]: 173 mg/kg | LD50 [5, 8]: 249 mg/kg

CCCCC[C@H](O)/C=C/[C@H]1[C@H](O)CC(=O)[C@@H]1CCCCCCC(=O)O [Prostaglandin E1, prostaglandin E1]
solubility [1]: 70 µg/mL (≈ 197 µM) | LD50 [5, 8]: 7570 mg/kg | Blood pressure lowering ratio, Drug ([6]; 0.25 mg/kg): 4.8% | Blood pressure lowering ratio, Drug ([6]; 0.5 mg/kg): 7.7% | Blood pressure lowering ratio, Drug ([6]; 1.0 mg/kg): 10.5%
